Patent US20240317689A1, “POTASSIUM CHANNEL MODULATOR, COMPOSITION AND APPLICATION” (NEUSHEN THERAPEUTICS (SHANGHAI) CO., LTD, priority 2021, published 2024)

Biological target: T1, KCNQ2/3 potassium ion channel (Homo sapiens, UniProt O43525+O43526)
T1 construct: expressed in transfected cells; host or cells: CHO cells (hKCNQ-CHO)
Experiment: KCNQ2/3 potassium ion channel activation assay (whole-cell patch clamp, hKCNQ-CHO cells)
Format: cell-based
Conditions: read-out: Enhancment % (current enhancement multiple); for activation at 3 µM: test concentration 3 μM; for activation at 0.05 µM: test concentration 0.05 μM
Method: Example 64: KCNQ2/3 Potassium Ion Channel Activation Assay
hKCNQ-CHO cells were cultured at 37° C. in a humidified environment of 5% CO2.
• 2.1. Extracellular fluid (mM): NaCl 145, KCl 4, CaCl2 2, MgCl2 1, Glucose 10, HEPES 10. The pH value of the extracellular fluid was adjusted to 7.4 with NaOH, and the osmotic pressure was adjusted to about 295 mOsm. • 2.2. Intracellular fluid (mM (mmol/L)): KOH 31.25, KCl 120, EGTA 10, MgCl2 1.75, CaCl2 5.374, HEPES 10, Na-ATP 4. The pH value of the intracellular fluid was adjusted to 7.4 with HCl, and the osmotic pressure was adjusted to about 285 mOsm. • 2.3. The extracellular fluid should be prepared once a week, and the intracellular fluid should be stored at −20° C. after preparation.
The model positive reference compound Retigabine (RTG) was dissolved with 100% DMSO and configured as a 10 mM working solution. The test compounds were dissolved with 100% DMSO and configured as a 10 mM working solution. The final concentration of DMSO in the test solution should be less than 0.3%.
Whole-cell patch clamp was performed at room temperature. The electrical signals recorded with the EPC 10 USB amplifier (HEKA Elektronik, Germany) were filtered by a 3 kHz low-pass filter, and finally recorded in PatchMaster 2×90.5 software (HEKA Elektronik, Germany). At this step, the quality control standard was that the cell high-resistance sealing was greater than 500 MOhms, and the detection current was greater than 0.4 nA.
The recording electrodes were pulled out and polished with a vertical puller (NARISHIGE PC-10, Japan) using a borosilicate glass capillary (GC150tF-10, Harvard Apparatus Co., UK). At this step, the quality control standard was that the electrode resistance was between 2 MΩ and 5 MΩ.
During the recording process of the whole-cell patch clamp, a continuous perfusion system (BT100-2J, LongerPump, China) was used to continuously perfuse the extracellular fluid. The perfusion system was installed on the stage of an upright microscope (FN-S2N, Nikon, Japan), and the perfusion head was manually positioned under the microscope.
The voltage command for detecting the amplitude of hKCNQ current was as follows: the cell stepped from the clamping potential of −80 mV to −30 mV, and held for 1500 ms; and then the clamping voltage was lowered to −120 my and held for 500 ms; finally, the voltage returned to the clamping potential of −80 mV. The detection voltage command was repeated every 15,000 milliseconds, and the command was continuously executed during the compound test. The quality control standard for compound action stability was the current amplitude under 5 consecutive voltage commands, and the coefficient of variation of the current amplitude was <5%.
Data analysis was performed using PatchMaster 2×90.5 software (HEKA Elektronik, Germany) and Excel 2013 (Microsoft, USA) software. For each cell's patch clamp recording, the amplitude of the hKCNQ channel current (Itest) corresponding to the test compound concentration should be obtained. The enhanced channel current was obtained by subtracting the cell's original channel current (Icontrol) from Itest and dividing by Icontrol to obtain the current enhancement multiple. That is, the current enhancement multiple (Enhancment %)=(Itest −Icontrol)/Icontrol[…].

Row | Structure (SMILES) | activation at 3 µM | activation at 0.05 µM
1 | Cc1cc(N2CCCc3cc(OCC(F)(F)F)ccc3C2)cc(C)c1NC(=O)CC(C)(C)C [Compound 007, N-(2,6-dimethyl-4-(7-(2,2,2-trifluoroethoxy)-1,3,4,5-tetrahydro-2H-benzo[c]azepin-2-yl)phenyl)-3,3-dimethylbutanamide] | > 100% | 
2 | Cc1cc(N2CCSc3cc(F)ccc3C2)cc(C)c1NC(=O)CC(C)(C)C [Compound 025, N-(4-(8-fluoro-2,3-dihydrobenzo[f][1,4]thiazepin-4(5H)-yl)-2,6-dimethylphenyl)-3,3-dimethylbutanamide] | > 100% | 
3 | Cc1cc(N2CC=Cc3cc(F)c(F)cc3C2)cc(C)c1NC(=O)CC(C)(C)C [Compound 046, N-(4-(7,8-difluoro-1,3-dihydro-2H-benzo[c]azepin-2-yl)-2,6-dimethylphenyl)-3,3-dimethylbutanamide] | > 100% | 
4 | Cc1cc(N2CCCc3cc(F)c(F)cc3C2)c(Cl)c(C)c1NC(=O)CC(C)(C)C [Compound 048, N-(3-chloro-4-(7,8-difluoro-1,3,4,5-tetrahydro-2H-benzo[c]azepin-2-yl)-2,6-dimethylphenyl)-3,3-dimethylbutanamide] | > 100% | 
5 | Cc1cc(N2CCCc3cc(F)ccc3C2)c(C)c(C)c1NC(=O)CC(C)(C)C [Compound 030, N-(4-(7-fluoro-1,3,4,5-tetrahydro-2H-benzo[c]azepin-2-yl)-2,3,6-trimethylphenyl)-3,3-dimethylbutanamide] | 50 to 100% | 
6 | COc1ccc2c(c1)CCCN(c1cc(C)c(NC(=O)CC(C)(C)C)c(C)c1)C2 [Compound 001, N-(4-(7-methoxy-1,3,4,5-tetrahydro-2H-benzo[c]azepin-2-yl)-2,6-dimethylphenyl)-3,3-dimethylbutanamide] | 50 to 100% | 50 to 100%
7 | Cc1cc(N2CCS(=O)(=O)c3cc(F)ccc3C2)cc(C)c1NC(=O)CC(C)(C)C [Compound 026, N-(4-(8-fluoro-1,1-dioxido-2,3-dihydrobenzo[f][1,4]thiazepin-4(5H)-yl)-2,6-dimethylphenyl)-3,3-dimethylbutanamide] | > 100% | 
8 | Cc1cc(N2CCCc3cc(OCC(F)(F)CC(F)(F)F)ccc3C2)cc(C)c1NC(=O)CC(C)(C)C [Compound 062, N-(2,6-dimethyl-4-(7-(2,2,4,4,4-pentafluorobutoxy)-1,3,4,5-tetrahydro-2H-benzo[c]azepin-2-yl)phenyl)-3,3-dimethylbutanamide] | > 100% | 
9 | Cc1cc(N2CCCc3cc(F)ccc3C2)c(Cl)c(C)c1NC(=O)CC(C)(C)C [Compound 031, N-(3-chloro-4-(7-fluoro-1,3,4,5-tetrahydro-2H-benzo[c]azepin-2-yl)-2,6-dimethylphenyl)-3,3-dimethylbutanamide] | > 100% | 
10 | Cc1cc(N2CC=Cc3cc(F)ccc3C2)cc(C)c1NC(=O)CC(C)(C)C [Compound 027, N-(4-(7-fluoro-1,3-dihydro-2H-benzo[c]azepin-2-yl)-2,6-dimethylphenyl)-3,3-dimethylbutanamide] | > 100% | < 50%
11 | Cc1cc(N2CCCc3cc(OC4CC4)c(F)cc3C2)cc(C)c1NC(=O)CC(C)(C)C [Compound 042, N-(4-(7-cyclopropoxy-8-fluoro-1,3,4,5-tetrahydro-2H-benzo[c]azepin-2-yl)-2,6-dimethylphenyl)-3,3-dimethylbutanamide] | > 100% | 
12 | Cc1cc(N2CCCc3cc(OCC(C)C(F)(F)F)ccc3C2)cc(C)c1NC(=O)CC(C)(C)C (centres unmarked) [Compound 053, N-(2,6-dimethyl-4-(7-(3,3,3-trifluoro-2-methylpropoxy)-1,3,4,5-tetrahydro-2H-benzo[c]azepin-2-yl)phenyl)-3,3-dimethylbutanamide] | > 100% | 
13 | Cc1cc(N2CCCc3cc(O[C@H](C)C(F)(F)F)c(F)cc3C2)cc(C)c1NC(=O)CC(C)(C)C [Compound 037, (R)—N-(4-(8-fluoro-7-((1,1,1-trifluoropropan-2-yl)oxy)-1,3,4,5-tetrahydro-2H-benzo[c]azepin-2-yl)-2,6-dimethylphenyl)-3,3-dimethylbutanamide] | > 100% | 
14 | Cc1cc(N2CCCc3cc(OC4CCC(C(F)(F)F)CC4)ccc3C2)cc(C)c1NC(=O)CC(C)(C)C (centres unmarked) [Compound 059, N-(2,6-dimethyl-4-(7-((4-(trifluoromethyl)cyclohexyl)oxy)-1,3,4,5-tetrahydro-2H-benzo[c]azepin-2-yl)phenyl)-3,3-dimethylbutanamide] | > 100% | 
15 | Cc1cc(N2CCCc3cc(OCCOCC(F)(F)F)ccc3C2)cc(C)c1NC(=O)CC(C)(C)C [Compound 056, N-(2,6-dimethyl-4-(7-(2-(2,2,2-trifluoroethoxy)ethoxy)-1,3,4,5-tetrahydro-2H-benzo[c]azepin-2-yl)phenyl)-3,3-dimethylbutanamide] | > 100% | 
16 | CC1=CCN(c2cc(C)c(NC(=O)CC(C)(C)C)c(C)c2)Cc2ccc(F)cc21 [Compound 028, N-(4-(7-fluoro-5-methyl-1,3-dihydro-2H-benzo[c]azepin-2-yl)-2,6-dimethylphenyl)-3,3-dimethylbutanamide] | 50 to 100% | < 50%
17 | Cc1cc(N2CCCc3cc(OC(F)(F)F)ccc3C2)cc(C)c1NC(=O)CC(C)(C)C [Compound 006, N-(2,6-dimethyl-4-(7-(trifluoromethoxy)-1,3,4,5-tetrahydro-2H-benzo[c]azepin-2-yl)phenyl)-3,3-dimethylbutanamide] | > 100% | 
18 | CC[C@H](C)Oc1cc2c(cc1F)CN(c1cc(C)c(NC(=O)CC(C)(C)C)c(C)c1)CCC2 [Compound 040, (S)—N-(4-(7-(sec-butoxy)-8-fluoro-1,3,4,5-tetrahydro-2H-benzo[c]azepin-2-yl)-2,6-dimethylphenyl)-3,3-dimethylbutanamide] | > 100% | 
19 | Cc1cc(N2CCCc3cc(OC4COC4)ccc3C2)cc(C)c1NC(=O)CC(C)(C)C [Compound 013, N-(2,6-dimethyl-4-(7-(oxetan-3-yloxy)-1,3,4,5-tetrahydro-2H-benzo[c]azepin-2-yl)phenyl)-3,3-dimethylbutanamide] | > 100% | 
20 | Cc1cc(N2CCCc3cc(OC4CCCCC4)c(F)cc3C2)cc(C)c1NC(=O)CC(C)(C)C [Compound 045, N-(4-(7-(cyclohexyloxy)-8-fluoro-1,3,4,5-tetrahydro-2H-benzo[c]azepin-2-yl)-2,6-dimethylphenyl)-3,3-dimethylbutanamide] | > 100% | 
21 | Cc1cc(N2CCN(C)c3cc(F)ccc3C2)cc(C)c1NC(=O)CC(C)(C)C [Compound 024, N-(4-(8-fluoro-1-methyl-1,2,3,5-tetrahydro-4H-benzo[e][1,4]diazepin-4-yl)-2,6-dimethylphenyl)-3,3-dimethylbutanamide] | 50 to 100% | 
22 | Cc1cc(N2CCCc3cc(OC4CCC4)c(F)cc3C2)cc(C)c1NC(=O)CC(C)(C)C [Compound 043, N-(4-(7-cyclobutoxy-8-fluoro-1,3,4,5-tetrahydro-2H-benzo[c]azepin-2-yl)-2,6-dimethylphenyl)-3,3-dimethylbutanamide] | > 100% | 
23 | Cc1cc(N2CCCc3cc(OC4CC4)ccc3C2)cc(C)c1NC(=O)CC(C)(C)C [Compound 009, N-(4-(7-cyclopropoxy-1,3,4,5-tetrahydro-2H-benzo[c]azepin-2-yl)-2,6-dimethylphenyl)-3,3-dimethylbutanamide] | > 100% | 
24 | Cc1cc(N2CCCc3cc(OC4CCC4)ccc3C2)cc(C)c1NC(=O)CC(C)(C)C [Compound 010, N-(4-(7-cyclobutoxy-1,3,4,5-tetrahydro-2H-benzo[c]azepin-2-yl)-2,6-dimethylphenyl)-3,3-dimethylbutanamide] | > 100% | > 100%
25 | CC[C@@H](C)Oc1cc2c(cc1F)CN(c1cc(C)c(NC(=O)CC(C)(C)C)c(C)c1)CCC2 [Compound 041, (R)—N-(4-(7-(sec-butoxy)-8-fluoro-1,3,4,5-tetrahydro-2H-benzo[c]azepin-2-yl)-2,6-dimethylphenyl)-3,3-dimethylbutanamide] | > 100% | 
